Measured values published in paper PMC9186362, “Design and biological evaluation of substituted 5,7-dihydro-6H-indolo[2,3-c]quinolin-6-one as novel selective Haspin inhibitors” (Journal of Enzyme Inhibition and Medicinal Chemistry, 2022).

Assays:
Test in all cases: SelectScreen ZLYTE
Type in all cases: biochemical
MUSK = target: T1, MUSK (Homo sapiens, UniProt O15146); details: ATP Km, read-out: Percentage of inhibition
T1 construct: purchased Life Technologies (SelectScreen Whole Panel service)
Experimental: (§1) We further evaluated the selectivity profile of compound 55 on a larger panel of kinases (SelectScreen Whole Panel, Life Technologies). The inhibition profile of 55, evaluated at 1 μM, is depicted on a dendrogram on Figure 3 where kinases inhibited by a minimum of 80% are shown. A full list of the kinases tested is shown on Table S1 in supplementary information.

PHKG1 = target: T2, PHKG1 (Homo sapiens, UniProt Q16816); details: ATP Km, read-out: Percentage of inhibition
T2 construct: purchased Life Technologies
Experimental: as §1

PRKCA (PKC alpha) = PRKCA (PKC alpha) (Homo sapiens, UniProt P17252); details: ATP Km, read-out: Percentage of inhibition
Experimental: as §1

TYRO3 (RSE) = TYRO3 (RSE) (Homo sapiens, UniProt Q06418); details: ATP Km, read-out: Percentage of inhibition
Experimental: as §1

CSNK1G2 (CK1 gamma 2) = target: T3, CSNK1G2 (CK1 gamma 2) (Homo sapiens, UniProt P78368); details: ATP Km, read-out: Percentage of inhibition
T3 construct: purchased Life Technologies
Experimental: as §1

MAP3K9 (MLK1) = MAP3K9 (MLK1) (Homo sapiens, UniProt P80192); details: ATP Km, read-out: Percentage of inhibition
Experimental: as §1

LYN B = LYN B (Homo sapiens, UniProt P07948); details: ATP Km, read-out: Percentage of inhibition
Experimental: as §1

LTK (TYK1) = target: T4, LTK (TYK1) (Homo sapiens, UniProt P29376); details: ATP Km, read-out: Percentage of inhibition
T4 construct: purchased Life Technologies (SelectScreen Whole Panel service)
Experimental: as §1

CLK2 = target: T5, CLK2 (Homo sapiens, UniProt P49760); details: ATP Km, read-out: Percentage of inhibition
T5 construct: purchased Life Technologies
Experimental: as §1

FLT3 D835Y = target: T6, FLT3 D835Y (Homo sapiens, UniProt P36888, D835Y); details: ATP Km, read-out: Percentage of inhibition
T6 construct: purchased Life Technologies (SelectScreen Whole Panel)
Experimental: as §1

BTK = target: T7, BTK (Homo sapiens, UniProt Q06187); details: ATP Km, read-out: Percentage of inhibition
T7 construct: purchased Life Technologies (SelectScreen service)
Experimental: as §1

ITK = target: T8, ITK (Homo sapiens, UniProt Q08881); details: ATP Km, read-out: Percentage of inhibition
T8 construct: purchased Life Technologies (SelectScreen Whole Panel)
Experimental: as §1

PDK1 = PDK1 (Homo sapiens, UniProt O15530); details: ATP 100 µM, read-out: Percentage of inhibition
Experimental: as §1

PAK2 (PAK65) = PAK2 (PAK65) (Homo sapiens, UniProt Q13177); details: ATP Km, read-out: Percentage of inhibition
Experimental: as §1

RET A883F = target: T9, RET A883F (Homo sapiens, UniProt P07949, A883F); details: ATP Km, read-out: Percentage of inhibition
T9 construct: purchased Life Technologies (SelectScreen service)
Experimental: as §1

EPHB2 = EPHB2 (Homo sapiens, UniProt P29323); details: ATP Km, read-out: Percentage of inhibition
Experimental: as §1

AMPK (A2/B1/G3) = target: T10, AMPK (A2/B1/G3) (Homo sapiens, UniProt P54646); details: ATP Km, read-out: Percentage of inhibition
T10 construct: purchased Life Technologies (SelectScreen Whole Panel service)
Experimental: as §1

TXK = TXK (Homo sapiens, UniProt P42681); details: ATP Km, read-out: Percentage of inhibition
Experimental: as §1

SRMS (Srm) = target: T11, SRMS (Srm) (Homo sapiens, UniProt Q9H3Y6); details: ATP Km, read-out: Percentage of inhibition
T11 construct: purchased Life Technologies (SelectScreen Whole Panel service)
Experimental: as §1

ABL1 Y253F = target: T12, ABL1 Y253F (Homo sapiens, UniProt P00519, Y253F); details: ATP Km, read-out: Percentage of inhibition
T12 construct: purchased Life Technologies (SelectScreen Whole Panel)
Experimental: as §1

AXL = target: T13, AXL (Homo sapiens, UniProt P30530); details: ATP Km, read-out: Percentage of inhibition
T13 construct: purchased Life Technologies
Experimental: as §1

JAK2 JH1 JH2 V617F = target: T14, JAK2 JH1 JH2 V617F (Homo sapiens, UniProt O60674, V617F); details: ATP Km, read-out: Percentage of inhibition
T14 construct: JAK2 JH1 JH2; purchased Life Technologies
Experimental: as §1

INSRR (IRR) = target: T15, INSRR (IRR) (Homo sapiens, UniProt P14616); details: ATP Km, read-out: Percentage of inhibition
T15 construct: purchased Life Technologies (SelectScreen Whole Panel)
Experimental: as §1

PTK2 (FAK) = target: T16, PTK2 (FAK) (Homo sapiens, UniProt Q05397); details: ATP Km, read-out: Percentage of inhibition
T16 construct: purchased Life Technologies (SelectScreen service)
Experimental: as §1

SBK1 = target: T17, SBK1 (Homo sapiens, UniProt Q52WX2); details: ATP Km, read-out: Percentage of inhibition
T17 construct: purchased Life Technologies (SelectScreen Whole Panel)
Experimental: as §1

CSK = target: T18, CSK (Homo sapiens, UniProt P41240); details: ATP Km, read-out: Percentage of inhibition
T18 construct: purchased Life Technologies (SelectScreen)
Experimental: as §1

SNF1LK2 = target: T19, SNF1LK2 (Homo sapiens, UniProt Q9H0K1); details: ATP Km, read-out: Percentage of inhibition
T19 construct: purchased Life Technologies (SelectScreen service)
Experimental: as §1

MELK = MELK (Homo sapiens, UniProt Q14680); details: ATP Km, read-out: Percentage of inhibition
Experimental: as §1

BRAF V599E = target: T20, BRAF V599E (Homo sapiens, UniProt P15056, V600E); details: ATP 100 µM, read-out: Percentage of inhibition
T20 construct: purchased Life Technologies
Experimental: as §1

CLK1 = target: T21, CLK1 (Homo sapiens, UniProt P49759); details: ATP Km, read-out: Percentage of inhibition
T21 construct: purchased Life Technologies (SelectScreen Whole Panel)
Experimental: as §1

BLK = target: T22, BLK (Homo sapiens, UniProt P51451); details: ATP Km, read-out: Percentage of inhibition
T22 construct: purchased Life Technologies (SelectScreen service)
Experimental: as §1

STK3 (MST2) = target: T23, STK3 (MST2) (Homo sapiens, UniProt Q13188); details: ATP Km, read-out: Percentage of inhibition
T23 construct: purchased Life Technologies (SelectScreen Whole Panel)
Experimental: as §1

MAPK10 (JNK3) = target: T24, MAPK10 (JNK3) (Homo sapiens, UniProt P53779); details: ATP 100 µM, read-out: Percentage of inhibition
T24 construct: purchased Life Technologies
Experimental: as §1

MAPK11 (p38 beta) = target: T25, MAPK11 (p38 beta) (Homo sapiens, UniProt Q15759); details: ATP Km, read-out: Percentage of inhibition
T25 construct: purchased Life Technologies (SelectScreen)
Experimental: as §1

ROCK2 = target: T26, ROCK2 (Homo sapiens, UniProt O75116); details: ATP Km, read-out: Percentage of inhibition
T26 construct: purchased Life Technologies
Experimental: as §1

PRKCQ (PKC theta) = PRKCQ (PKC theta) (Homo sapiens, UniProt Q04759); details: ATP Km, read-out: Percentage of inhibition
Experimental: as §1

RPS6KB1 (p70S6K) = target: T27, RPS6KB1 (p70S6K) (Homo sapiens, UniProt P23443); details: ATP Km, read-out: Percentage of inhibition
T27 construct: purchased Life Technologies (SelectScreen Whole Panel service)
Experimental: as §1

KIT V560G = target: T28, KIT V560G (Homo sapiens, UniProt P10721, V560G); details: ATP Km, read-out: Percentage of inhibition
T28 construct: purchased Life Technologies
Experimental: as §1

RPS6KA6 (RSK4) = target: T29, RPS6KA6 (RSK4) (Homo sapiens, UniProt Q9UK32); details: ATP Km, read-out: Percentage of inhibition
T29 construct: purchased Life Technologies
Experimental: as §1

T24 sequence (P53779 whole entry): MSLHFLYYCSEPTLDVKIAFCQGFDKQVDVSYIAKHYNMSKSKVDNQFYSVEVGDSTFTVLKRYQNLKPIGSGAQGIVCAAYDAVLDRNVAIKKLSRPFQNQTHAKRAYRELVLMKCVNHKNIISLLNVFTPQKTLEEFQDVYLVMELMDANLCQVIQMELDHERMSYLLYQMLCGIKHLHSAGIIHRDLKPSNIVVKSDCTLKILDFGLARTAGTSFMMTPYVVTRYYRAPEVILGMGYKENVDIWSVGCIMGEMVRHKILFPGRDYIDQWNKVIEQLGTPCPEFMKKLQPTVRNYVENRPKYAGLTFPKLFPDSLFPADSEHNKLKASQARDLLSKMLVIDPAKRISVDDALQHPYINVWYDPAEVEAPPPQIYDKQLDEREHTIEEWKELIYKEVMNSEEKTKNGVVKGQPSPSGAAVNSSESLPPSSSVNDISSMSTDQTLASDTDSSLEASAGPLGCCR
T26 sequence (O75116 whole entry): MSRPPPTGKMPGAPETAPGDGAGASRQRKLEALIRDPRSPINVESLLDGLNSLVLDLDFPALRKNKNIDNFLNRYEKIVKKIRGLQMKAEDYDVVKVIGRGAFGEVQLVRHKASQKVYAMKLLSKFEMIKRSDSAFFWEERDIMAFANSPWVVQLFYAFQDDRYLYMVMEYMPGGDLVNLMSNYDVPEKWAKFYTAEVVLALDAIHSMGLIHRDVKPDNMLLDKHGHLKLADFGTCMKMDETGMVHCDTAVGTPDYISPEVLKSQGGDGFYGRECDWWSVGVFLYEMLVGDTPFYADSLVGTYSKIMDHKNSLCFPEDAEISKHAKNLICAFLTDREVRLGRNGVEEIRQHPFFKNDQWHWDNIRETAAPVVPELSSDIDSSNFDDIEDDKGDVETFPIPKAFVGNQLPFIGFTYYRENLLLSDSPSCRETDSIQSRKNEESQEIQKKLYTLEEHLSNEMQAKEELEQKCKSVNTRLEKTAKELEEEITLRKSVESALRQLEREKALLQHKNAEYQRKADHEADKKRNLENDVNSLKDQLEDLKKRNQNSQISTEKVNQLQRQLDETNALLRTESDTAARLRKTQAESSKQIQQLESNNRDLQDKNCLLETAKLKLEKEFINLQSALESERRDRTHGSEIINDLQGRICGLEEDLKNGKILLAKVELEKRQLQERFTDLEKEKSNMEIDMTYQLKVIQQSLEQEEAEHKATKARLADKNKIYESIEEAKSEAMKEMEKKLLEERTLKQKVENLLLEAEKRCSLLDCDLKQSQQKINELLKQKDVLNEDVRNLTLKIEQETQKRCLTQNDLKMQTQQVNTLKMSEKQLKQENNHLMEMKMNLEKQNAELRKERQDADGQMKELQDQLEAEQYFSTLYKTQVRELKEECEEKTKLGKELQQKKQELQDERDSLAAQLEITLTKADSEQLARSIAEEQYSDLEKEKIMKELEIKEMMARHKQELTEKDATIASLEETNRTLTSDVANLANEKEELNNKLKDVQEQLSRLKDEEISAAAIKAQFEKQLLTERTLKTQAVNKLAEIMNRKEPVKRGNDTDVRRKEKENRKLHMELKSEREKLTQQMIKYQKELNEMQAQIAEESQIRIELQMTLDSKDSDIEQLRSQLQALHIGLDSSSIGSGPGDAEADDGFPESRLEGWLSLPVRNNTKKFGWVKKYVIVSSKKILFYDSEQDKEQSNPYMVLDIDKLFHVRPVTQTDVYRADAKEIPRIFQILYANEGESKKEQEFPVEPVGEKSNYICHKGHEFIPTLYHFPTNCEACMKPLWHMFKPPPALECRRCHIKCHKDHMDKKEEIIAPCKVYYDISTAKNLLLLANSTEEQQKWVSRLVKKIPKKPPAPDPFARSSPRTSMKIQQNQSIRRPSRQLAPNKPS
T27 sequence (P23443 whole entry): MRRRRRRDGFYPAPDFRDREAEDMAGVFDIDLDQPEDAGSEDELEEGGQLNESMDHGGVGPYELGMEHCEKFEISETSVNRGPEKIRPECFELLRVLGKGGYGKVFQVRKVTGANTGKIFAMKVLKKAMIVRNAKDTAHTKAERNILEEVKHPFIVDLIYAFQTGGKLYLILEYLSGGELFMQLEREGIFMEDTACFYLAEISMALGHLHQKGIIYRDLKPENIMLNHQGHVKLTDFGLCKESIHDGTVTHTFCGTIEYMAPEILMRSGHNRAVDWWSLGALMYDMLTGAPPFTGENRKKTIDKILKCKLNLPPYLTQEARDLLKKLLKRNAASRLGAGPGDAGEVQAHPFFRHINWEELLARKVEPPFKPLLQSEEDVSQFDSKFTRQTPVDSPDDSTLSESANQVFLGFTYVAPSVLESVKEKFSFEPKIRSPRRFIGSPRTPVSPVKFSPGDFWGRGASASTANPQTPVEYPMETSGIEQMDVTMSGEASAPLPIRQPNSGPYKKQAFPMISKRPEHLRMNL
T28 sequence (P10721 26-976 V560G): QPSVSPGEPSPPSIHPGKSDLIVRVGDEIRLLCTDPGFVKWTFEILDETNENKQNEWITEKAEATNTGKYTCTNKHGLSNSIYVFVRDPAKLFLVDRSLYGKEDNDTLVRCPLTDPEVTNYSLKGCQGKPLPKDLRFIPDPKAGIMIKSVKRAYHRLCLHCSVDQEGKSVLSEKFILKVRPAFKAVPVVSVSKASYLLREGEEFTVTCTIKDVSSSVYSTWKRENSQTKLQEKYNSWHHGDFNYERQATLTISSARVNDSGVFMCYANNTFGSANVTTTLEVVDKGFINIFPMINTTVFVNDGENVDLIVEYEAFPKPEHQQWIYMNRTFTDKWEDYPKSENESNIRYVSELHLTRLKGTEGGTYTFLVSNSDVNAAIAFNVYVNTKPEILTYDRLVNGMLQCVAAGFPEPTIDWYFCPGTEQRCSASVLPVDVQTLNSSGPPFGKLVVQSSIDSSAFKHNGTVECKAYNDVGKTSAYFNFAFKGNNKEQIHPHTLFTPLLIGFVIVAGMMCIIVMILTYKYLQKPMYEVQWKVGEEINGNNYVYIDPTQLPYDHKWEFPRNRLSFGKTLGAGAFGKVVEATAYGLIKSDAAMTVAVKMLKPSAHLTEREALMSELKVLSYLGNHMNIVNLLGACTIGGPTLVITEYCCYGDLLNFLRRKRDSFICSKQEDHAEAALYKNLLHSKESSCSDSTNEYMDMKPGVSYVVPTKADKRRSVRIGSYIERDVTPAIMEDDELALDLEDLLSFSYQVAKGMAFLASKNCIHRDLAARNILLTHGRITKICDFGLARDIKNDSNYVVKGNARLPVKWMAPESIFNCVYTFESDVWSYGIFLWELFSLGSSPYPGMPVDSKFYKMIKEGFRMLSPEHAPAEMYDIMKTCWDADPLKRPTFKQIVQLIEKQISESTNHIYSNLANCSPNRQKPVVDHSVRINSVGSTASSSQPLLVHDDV
T5 sequence (P49760 whole entry): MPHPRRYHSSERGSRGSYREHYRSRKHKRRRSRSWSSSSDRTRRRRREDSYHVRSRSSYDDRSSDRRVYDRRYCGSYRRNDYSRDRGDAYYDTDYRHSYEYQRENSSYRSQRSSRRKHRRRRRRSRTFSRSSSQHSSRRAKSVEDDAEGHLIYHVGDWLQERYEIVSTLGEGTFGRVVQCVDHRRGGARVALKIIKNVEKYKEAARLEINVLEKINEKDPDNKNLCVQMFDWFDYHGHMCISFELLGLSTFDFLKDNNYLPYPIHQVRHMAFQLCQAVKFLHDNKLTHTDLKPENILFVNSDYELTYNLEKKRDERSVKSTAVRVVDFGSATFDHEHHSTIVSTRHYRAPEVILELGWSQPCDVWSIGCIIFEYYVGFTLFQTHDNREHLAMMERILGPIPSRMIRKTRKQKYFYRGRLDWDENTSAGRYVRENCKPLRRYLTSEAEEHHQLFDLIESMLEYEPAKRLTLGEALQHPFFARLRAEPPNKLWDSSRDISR
Chain of PRKCQ (PKC theta) (Q04759 whole entry): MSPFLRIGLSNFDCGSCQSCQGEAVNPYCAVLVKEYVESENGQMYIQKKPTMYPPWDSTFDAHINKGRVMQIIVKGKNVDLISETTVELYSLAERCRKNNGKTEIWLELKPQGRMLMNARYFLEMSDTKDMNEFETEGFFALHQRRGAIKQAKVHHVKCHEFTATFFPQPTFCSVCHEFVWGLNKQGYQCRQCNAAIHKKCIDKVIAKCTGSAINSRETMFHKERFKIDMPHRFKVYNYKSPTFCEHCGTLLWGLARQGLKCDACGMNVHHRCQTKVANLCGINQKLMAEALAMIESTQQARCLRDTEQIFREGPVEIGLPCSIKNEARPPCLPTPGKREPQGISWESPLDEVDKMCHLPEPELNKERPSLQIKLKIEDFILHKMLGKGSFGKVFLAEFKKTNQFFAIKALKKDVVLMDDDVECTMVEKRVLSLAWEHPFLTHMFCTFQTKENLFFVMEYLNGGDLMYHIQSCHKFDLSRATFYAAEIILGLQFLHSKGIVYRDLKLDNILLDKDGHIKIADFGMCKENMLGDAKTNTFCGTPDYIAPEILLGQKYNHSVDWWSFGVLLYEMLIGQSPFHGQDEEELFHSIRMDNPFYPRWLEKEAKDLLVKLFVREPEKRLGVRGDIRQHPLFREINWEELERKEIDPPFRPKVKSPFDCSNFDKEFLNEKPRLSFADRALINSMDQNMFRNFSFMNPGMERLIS
T3 sequence (P78368 whole entry): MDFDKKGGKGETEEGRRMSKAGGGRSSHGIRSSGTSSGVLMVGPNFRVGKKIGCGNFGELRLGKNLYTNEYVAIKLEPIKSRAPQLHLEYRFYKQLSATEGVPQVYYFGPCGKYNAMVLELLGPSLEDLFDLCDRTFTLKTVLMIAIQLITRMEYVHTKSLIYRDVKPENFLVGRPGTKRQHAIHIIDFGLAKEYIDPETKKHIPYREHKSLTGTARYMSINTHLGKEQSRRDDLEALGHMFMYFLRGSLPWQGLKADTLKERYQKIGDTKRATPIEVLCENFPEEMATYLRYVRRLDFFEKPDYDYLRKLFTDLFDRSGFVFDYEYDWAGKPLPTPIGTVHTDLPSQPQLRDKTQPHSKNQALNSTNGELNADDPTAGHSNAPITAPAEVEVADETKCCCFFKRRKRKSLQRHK

`COc1ccc2[nH]c3c(=O)[nH]c4ccc(O)cc4c3c2c1` [Compound 55, 2-Hydroxy-10-methoxy-5,7-dihydro-6H-indolo[2,3-c]quinolin-6-one] gave an inhibition at 1 µM (MUSK) of 18%, an inhibition at 1 µM (PHKG1) of 32% and an inhibition at 1 µM (PRKCA (PKC alpha)) of 14%. The inhibition at 1 µM (TYRO3 (RSE)) was 60%, the inhibition at 1 µM (CSNK1G2 (CK1 gamma 2)) was 33% and the inhibition at 1 µM (MAP3K9 (MLK1)) was 63%. It also gave an inhibition at 1 µM (LYN B) of 67%, an inhibition at 1 µM (LTK (TYK1)) of 16% and an inhibition at 1 µM (CLK2) of 97%. For the same molecule, the inhibition at 1 µM (FLT3 D835Y) was 100%, the inhibition at 1 µM (BTK) was 24% and the inhibition at 1 µM (ITK) was 49%. The inhibition at 1 µM (PDK1) was 15%, the inhibition at 1 µM (PAK2 (PAK65)) was 6% and the inhibition at 1 µM (RET A883F) was 85%. For the same molecule, the inhibition at 1 µM (EPHB2) was 21%, the inhibition at 1 µM (AMPK (A2/B1/G3)) was 42% and the inhibition at 1 µM (TXK) was 22%. For the same molecule, the inhibition at 1 µM (SRMS (Srm)) was 16%, the inhibition at 1 µM (ABL1 Y253F) was 55% and the inhibition at 1 µM (AXL) was 37%. For the same molecule, the inhibition at 1 µM (JAK2 JH1 JH2 V617F) was 36%, the inhibition at 1 µM (INSRR (IRR)) was 52% and the inhibition at 1 µM (PTK2 (FAK)) was 25%. The inhibition at 1 µM (SBK1) was 1%, the inhibition at 1 µM (CSK) was 9% and the inhibition at 1 µM (SNF1LK2) was 24%. For the same molecule, the inhibition at 1 µM (MELK) was 57%, the inhibition at 1 µM (BRAF V599E) was 96% and the inhibition at 1 µM (CLK1) was 98%. For the same molecule, the inhibition at 1 µM (BLK) was 86%, the inhibition at 1 µM (STK3 (MST2)) was 99% and the inhibition at 1 µM (MAPK10 (JNK3)) was 15%. The inhibition at 1 µM (MAPK11 (p38 beta)) was 8%, the inhibition at 1 µM (ROCK2) was 4% and the inhibition at 1 µM (PRKCQ (PKC theta)) was 7%. For the same molecule, the inhibition at 1 µM (RPS6KB1 (p70S6K)) was 12%, the inhibition at 1 µM (KIT V560G) was 27% and the inhibition at 1 µM (RPS6KA6 (RSK4)) was 93%.
